Results from patent US6929811B2, “Monoamine oxidase (MAO) inhibitors and uses thereof” (priority 1998, dated 2005).

Legend:
[1] = tested on: MPTP induced toxicity; conditions: mice, cited from earlier work; for effect on dopamine levels: MPTP
[2] = tested on: MAO; assay: Total MAO activity, spectrophotometric assay in liver homogenate; type: biochemical, cow or rat; conditions: for percent inhibition of MAO activity: at maximal or saturating inhibition concentrations, tyramine substrate, 37 degrees Centigrade; for maximal inhibition concentration: dissolved in distilled water, concentration curve at reaction time of one hour; for MAO inhibition over the reaction time course: saturating concentrations, over 60 minutes of MAO activity
Description: The MAO activities of the compounds and substances were determined using standard reaction conditions as described in Halt, A., et al., Analytical Biochemistry, 244:384-392 (1997).
(§1) Liver samples from cow or rat were obtained immediately after sacrifice. Liver was homogenized in a Polytron mechanical homogenizer in a ratio of 1 gram of liver to 1 ml of potassium phosphate buffer (0.2 M at pH of 7.6). Large membranes were removed by low speed centrifugation at 1000×g for 15 minutes. The supernatant was removed from the pellet and used immediately for MAO activity assays or stored at 0 degrees Centigrade. Protein levels were determined in the liver homogenate by the Bradford protein reaction.
(§2) The standard reaction conditions were developed as a modification of the spectrophotometric assay using standard conditions (Halt, A., et al., Analytical Biochemistry, 244:384-392 (1997)). Total MAO activity was determined by incubating the liver preparations for 30 minutes at 37 degrees Centigrade with a 1/1 dilution of a test fraction (compound or substance to be tested dissolved in distilled water) or control condition (water alone). This incubation allowed the test compound or substance to interact with the enzyme under physiological conditions. The final tissue concentration in the reaction mixture was 3.5 mg per 100 ml.
Following the incubation with test compounds/substances or control, the MAO reactions were initiated and the reactions were incubated at 37 degrees Centigrade. The reaction was initiated by mixing 150 μl of preincubated tissue with 150 μl of chromogenic solution (containing 10 mM vanillic acid, 5 mM 4-amino antipyrene, 20 units/ml of peroxidase in 0.2 M potassium phosphate buffer final concentration pH 7.6), 600 μl of amine substrate (tyramine 500 micromolar), and 100 μl of distilled water (1 ml reaction volume). The standard reaction time was for 1 hour, but reaction times varied from 1 minute to 3 hours to evaluate the time course of the reaction in the presence or absence of test substance or control. The reactions were terminated by the addition of 30 μl of a stop solution of phenelzine (10 mM). The stopped reactions were stored on ice and placed at room temperature for reading in a spectrophotometer at a wavelength of 498 nm. The resulting values were analyzed to determine the amount of reaction product produced by MAO activity. This assay was reliable and simple to perform. A standard curve using hydrogen peroxide for enzyme activity was prepared for each experiment to determine the activity of the enzyme.
(§3) Each of the compounds and substances of the present invention were evaluated by initially determining a concentration curve at a reaction time of one hour. After determining the concentration curves of each compound or substance on MAO activity, a reaction time course in the presence or absence of test compound or substance was determined and time course curves were generated. Following these experiments, the effect of each test compound or substance was evaluated on MAO A and MAO B activity by the same reaction studies as described above for the total enzyme activity.

[3] = tested on: MAO B; assay: Selective MAO B assay in liver homogenate, other isoform blocked by selective inhibitor; type: biochemical, cow or rat; conditions: saturating concentration; significantly different from control
Description: as §1
as §2, with “This incubation allowed the test compound or substance to interact with the enzyme under physiological conditions. The final tissue concentration in the reaction mixture was 3.5 mg per 100 ml.” left out
(§4) Following the incubation with test compounds/substances or control, the MAO reactions were initiated and the reactions were incubated at 37 degrees Centigrade. […] The stopped reactions were stored on ice and placed at room temperature for reading in a spectrophotometer at a wavelength of 498 nm. The resulting values were analyzed to determine the amount of reaction product produced by MAO activity. […]
(§5) Selective assays of MAO A and MAO B isoforms were determined by using selective inhibitors of each of these enzymes. […]
as §3

[4] = tested on: MAO A; assay: Selective MAO A assay in liver homogenate, other isoform blocked by selective inhibitor; type: biochemical, cow or rat; conditions: saturating concentration; significantly different from control
Description: as §1
as §2, with “This incubation allowed the test compound or substance to interact with the enzyme under physiological conditions. The final tissue concentration in the reaction mixture was 3.5 mg per 100 ml.” left out
as §4, §5, §3

SMILES | effect on dopamine levels [1] | effect on decrease in dopamine metabolite levels induced by MPTP [1] | percent inhibition of MAO activity [2] | maximal inhibition concentration [2] | MAO inhibition over the reaction time course [2] | inhibition of MAO B activity [3] | inhibition of MAO A activity [4]
c1ccc(-c2ccncc2)cc1 [4-phenylpyridine] | no significant effect on dopamine levels | prevented the decrease in dopamine metabolite levels |  |  |  |  | 
c1cncc([C@@H]2CCCCN2)c1 [anabasine, Anabasine] |  |  | 10-13% | 0.2 mg/mL | effective at inhibiting the enzyme at all time points in the reaction | inhibit both MAO A and MAO B activity | inhibit both MAO A and MAO B activity
C1=CCC(c2cccnc2)NC1 (stereo not shown) [anatabine, Anatabine] |  |  | approximately 60% | 0.1 mg/mL | effective at inhibiting the enzyme at all time points in the reaction | equally effective in inhibiting both MAO A and MAO B activities | equally effective in inhibiting both MAO A and MAO B activities
CN1CCCC1c1cccnc1 (stereo not shown) [nicotine] | no significant effect on dopamine levels | prevented the decrease in dopamine metabolite levels |  |  |  |  | 
c1cncc([C@@H]2CCCN2)c1 [nornicotine, Nornicotine] |  |  | 80 to 95% | 0.08 mg/mL | effective at inhibiting the enzyme at all time points in the reaction | equally effective in inhibiting both MAO A and MAO B activities | equally effective in inhibiting both MAO A and MAO B activities
